# Measurements published in patent publication EP4459287A1, “METHODS AND TOOLS FOR DETECTING THE IMPACT OF COMPOUNDS ON PROTEIN, RNA OR DNA INTERACTIONS” (Synsight "Génopole Entreprises", priority 2023, dated 2024).
# Key:
# [1] = system: TDP-43; assay: Four TDP-43 tests (stress granule enrichment, subcellular localization, CFTR alternative splicing, G146A aggregation); assay type: cell-based
# Excerpt: The 13 selected compounds have then been tested in the three cellular tests, i.e. enrichment of wt TDP-43 in stress granules and their subcellular localization in presence of the compounds to be tested, and the effects of the compounds to be tested on the alternative splicing of the cystic fibrosis transmembrane conductance regulator (CFTR) gene by wt TDP-43. Finally, the effects of the 13 compounds on the aggregation of the G146A mutant of TDP-43 has been tested.
# [2] = molecular target: T1, p53/MDM2 interaction (Homo sapiens, UniProt Q00987); assay: MT bench cell-based assay of p53/MDM2 interaction on HCS (PCC co-localization score); settings: for inhibition of the p53/MDM2 interaction: U-2 OS cells
# T1 construct: Human p53 and MDM2 full length cDNA were amplified by PCR; expressed in transfected cells; host or cells: U-2 OS (human osteosarcoma)
# Protocol: The MT bench was done using Human Osteosarcoma (U-2 OS) cell line which is the reference for cellular imagery. U-2 OS cells were cultured at 37°C in a humidified atmosphere with 5% CO2 in Dulbecco's modified Eagle's medium (DMEM, Life Technologies) supplemented with 10% FBS (Fetal Bovine Serum, Life Technologies) and 1% penicillin/streptomycin.
# The generation of the cellular plate (seeding, transfection, treatment) was done automatically using the liquid handler BRAVO from Agilent equipped with a 96-LT (Large Tips) head. U-2 OS cells were seeded on black 96-well plates cell carrier ultra (PerkinElmer) at a density of 18.000 cells per well and after 24h incubation in a humidified incubator at 37°C with 5% CO2 were co-transfected with 12µg human p53-FL(SEQ ID N°15)_C_RFP- MBD and 03µg human MDM2-FL(SEQ ID N°21)_C_GFP plasmids for the positive control (untreated condition) or 12µg human p53-F19AW23AL26A(SEQ ID N°20)_C_RFP-MBD and 0.3µg human MDM2-FL(SEQ ID N°21)_C_GFP plasmids corresponding to the negative control (non-interacting condition / treated condition) using 0.5µg Lipofectamine 2000 (Invitrogen) in optiMEM for 18h.
# After 18h of transfection, cells were fixed with ice-cold methanol 100% for 10min at -20°C, washed with PBS and then further fixed with 4% Para FormAldehyde (PFA) in PBS freshly prepared for 10min at RT. […] After washing with PBS, cell nuclei were stained with DAPI (0.1µg/mL) for 5min at RT and samples kept into PBS for fluorescence microscopy imaging. The cellular fluorescent signal was acquired on HCS imaging system Opera Phenix from PerkinElmer, using a 40X water immersion 1.1NA objective and with Harmony® software.
# After image acquisition, successive building blocks from Harmony® software was used for image segmentation (find nuclei, find cytoplasm, and select population through threshold on GFP and RFP maximum and mean intensities, as well as cell area). Both images were then filtered using SER Ridge filters to highlight microtubule structures in the cytoplasm.
# The PCC is a well-established correlation score to measure co-localization and calculated as follows [formula] where Ri and Gi are the pixel intensity values and Rav and Gav are the means of red and green channel, respectively. The values are range between +1 (perfect correlation) to -1 (perfect inverse correlation), with 0 being the absence of co-localization. Thus, the PCC values reflect the co-localization between bait and prey proteins into cytoplasm, translating the interaction on the microtubule network.
# This normalization was done by extrapolating the PCC values relatively to the controls, by using the mean of negative control wells and the mean of positive control wells.
# [3] = cellular data, Vu et al., 2013; read-out: IC50 MTT assay; cited from earlier work
# [4] = molecular target: MDM2-FL_C_GFP (human) (UniProt Q00987); assay: MT bench normalized PCC score, fixed U-2 OS cells
# MDM2-FL_C_GFP (human), sequence (Q00987 whole entry): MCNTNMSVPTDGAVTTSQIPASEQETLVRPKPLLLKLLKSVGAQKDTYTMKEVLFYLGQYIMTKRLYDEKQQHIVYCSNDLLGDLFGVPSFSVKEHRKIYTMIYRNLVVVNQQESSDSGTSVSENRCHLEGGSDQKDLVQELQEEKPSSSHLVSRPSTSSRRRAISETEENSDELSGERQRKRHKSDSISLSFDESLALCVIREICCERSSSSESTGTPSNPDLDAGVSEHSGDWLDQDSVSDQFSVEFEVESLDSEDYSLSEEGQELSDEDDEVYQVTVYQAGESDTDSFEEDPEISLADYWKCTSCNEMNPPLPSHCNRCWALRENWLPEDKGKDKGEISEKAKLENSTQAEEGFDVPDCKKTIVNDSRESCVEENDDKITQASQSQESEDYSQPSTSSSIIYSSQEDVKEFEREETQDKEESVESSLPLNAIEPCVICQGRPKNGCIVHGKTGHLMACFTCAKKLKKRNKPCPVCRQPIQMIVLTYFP
# T1 sequence (Q00987 whole entry): as above
compound,measurement,setting,value
Nc1ncnc2c1c(I)cn2[C@@H]1O[C@H](CO)[C@@H](O)[C@H]1O [5-iodotubercidin],effect in the four tests,[1],showed an effect on at least two of the four tests
"O=C1C(=O)c2ccccc2-c2ccccc21 [9,10-Phenanthrenequinone]",effect in the four tests,[1],showed an effect on at least two of the four tests
O=C1Nc2ccc3ncsc3c2C1=Cc1cnc[nH]1 [PKRi],effect in the four tests,[1],showed an effect on at least two of the four tests
CCOc1cc(C(C)(C)C)ccc1C1=N[C@@](C)(c2ccc(Cl)cc2)[C@@](C)(c2ccc(Cl)cc2)N1C(=O)N1CCN(CCCS(C)(=O)=O)CC1 [RG7112],inhibition of the p53/MDM2 interaction,[2]; 0.05µM (low concentration),weak inhibition of the interaction
same,inhibition of the p53/MDM2 interaction,[2]; 0.5µM (medium concentration),moderate inhibition of the interaction
same,inhibition of the p53/MDM2 interaction,[2]; 5µM (high concentration),strong inhibition of the interaction
same,inhibition of the p53/MDM2 interaction,[2]; 50µM (high concentration),strong inhibition of the interaction
same,disruption of p53/MDM2 interaction and re-localization of MDM2 in the nucleus,"[2]; increasing concentrations 0.05µM, 0.5µM, 5µM, 50µM, fixed U-2 OS cells",dose-dependent manner
same,IC50,[3],400 nM
p53-F19A_C_RFP-MBD,percent of the interaction abrogated (against wild-type p53),[4],> 90%
